According to patent US11267809B2, “BAF complex modulating compounds and methods of using the same” (THE BOARD OF TRUSTEES OF THE LELAND STANFORD JUNIOR …, priority 2017, dated 2022):

Tests used:
Assay type in all cases: cell-based, human
HCT116 ARID1A(+/+) cells = assay: Cell cycle analysis after double thymidine block synchronization
Protocol: To investigate this, we synchronized cells in the early G1/S phase and then tracked their progression through the cell cycle upon release into media containing BAFi. To assess the full cell cycle, time points were collected beginning at early G0/G1 of the second cycle following release from thymidine block. […] This is consistent with our observation that BAFi independently has minimal toxicity or effects on proliferation. […] Further, we observe that when BAFi cells are treated with VE-821, their decreased entry and slowed progression through S Phase results in an inability to successfully complete their transition through the cell cycle, akin to knockout of ARID1A. […]
For hour-by-hour analysis, cells were collected, rinsed with PBS, and vortexed while adding 1mL ice cold 70% ethanol. […] Individual cells were gated based on forward and side scatter, auto fluorescent cells were omitted, and remaining cells were then analyzed for propidium iodide levels. To determine the percent of cells in each phase, DNA content histograms histograms were analyzed using R-package “mixtools” EM algorithm for mixtures of univariate normals. The areas of each mixed normal distribution were calculated to represent the total number of cells in each phase of the cell cycle. […] ESCs were incubated with BrdU for 1 h and the percent of cells in G2/M, stained with 7-AAD and analyzed on a BD FACScan.

MDA-MB-436 cells = assay: Synergy viability assay, MDA-MB-436
Text: In ARID1A-deficient tumors, ATR inhibition is thought to trigger premature mitotic entry and chromosome instability that cannot be resolved, resulting in mitotic catastrophe^27. […] We sought to assess whether generic BAF inhibition might sensitize a host of cancers to ATR inhibition. We tested the efficacy of BAFi and ATRi on nine additional human cancer cell lines including seven Breast cancer cell lines (HCC1143, HCC1954, HCC1187, MDAMB-468, MDA-MB-436, Cal-51, MCF-7) and two renal clear cell carcinoma cell lines (A-704, and ACHN). Cal-51 and MCF-7 are both considered aggressive, highly mutated breast cancer cell lines with numerous COSMIC Census gene mutations (FIG. 10). HCC1143 and MDA-MB-468 are sporadic basal-likecancers, HCC1187 is a triple-negative breast cancer, and HCC1954 and MDA-MB-436 are BRCA1 mutant breast cancers which harbor single driver mutations. To assess synergy, each cell line was treated with 5 doses of VE-821 (1.25 uM-20 uM) and 5 doses of Baficillin1 (1.25 uM-20 uM), both independently and with all possible combinations. Like HCT-116 cells, Baficillin1 sensitized MCF-7 and Cal-51 cells lines to treatment with VE-821 (FIG. 6a).
Viability assays were performed in 384-well plates. Cells were plated at 500 cells/well. […] After 5 days, cellular viability was measured using CellTitre blue, as described by the manufacturer.

[1] = test system: HCT116 cells infected with shRNA lentivirus targeting ARID1A; assay: Synergy viability assay, HCT116 with shARID1A knockdown
Text: SMARCA4, the primary target of our original screen, is present in both human BAF and PBAF complexes in cancer^12. PBAF complexes differ from BAF complexes by incorporation of specific subunits. Specifically, PBAF complexes contain ARID2 (as opposed to ARID1A/B), PHF10 (BAF45a) (as opposed to […] (BAF45d)), PBRM1, and lack the BAF-specific subunit SS18. PBAF specific subunits are also frequently mutated in cancer, specifically renal clear cell carcinomas and cholangiocarcinomas^33-36. To assess whether the lead compound is targeting BAF, PBAF complexes, or both, we constitutively knocked down ARID1A or ARID2 by lentiviral transduction of HCT116 cells and compared the BAFi/ATRi synergy to the wild-type (ARID1A+/+). […] Further, upon knockdown of ARID1A or ARID2 (FIG. 3b), the synergistic effect observed between Baficillin1 and VE-821 was ablated upon loss of ARID1A (FIG. 3e) (CIshARID1A=1.48±0.14), but not loss of shARID2 (CIshARID2=0.42±0.04) (FIG. 3c-e).
Viability assays were performed in 384-well plates. Cells were plated at 500 cells/well. Each drug was administered in 5-doses with 4 replicates per plate, and each 5×5 drug combination was administered with 8 replicates per plate, 24 hours after seeding. All error bars represent 4 or 8 technical replicates averaged over 3 independent experiments. Media containing fresh drug was replaced every 48 hours. After 5 days, cellular viability was measured using CellTitre blue, as described by the manufacturer.
Lentiviruses were produced in Lenti-X 293T cells (Clonetech) via spinfection with polyethylenimine transfection. 293T-x cells were transfected with PEI (Polysciences Inc., 24765) with lentiviral PLKO shARID1A or GIPZ shARID2 knockdown vectors, co-transfected with packaging vectors pspax2 and pMD2.G as previously described^49. PLKO shRNA construct targeting ARID1A (TRCN0000059090: shRNA-2) was obtained^50 and GIPZ Human ARID2 shRNA was purchased from Dharmacon (CloneId:V2LHS_74399). […]

Structure (SMILES): CO[C@H]1CN(C)C(=O)c2cc(NC(=O)NC(C)C)ccc2OC[C@H](C)N(Cc2ccc(-c3ccccn3)cc2)C[C@@H]1C [Baficillin1]
- S/G2 crossover time (HCT116 ARID1A(+/+) cells; 10 uM Baficillin1 in combination with ATRi (VE-821 10 uM)): ~7.5 h
- cell cycle rate (HCT116 ARID1A(+/+) cells; Baficillin1 10 uM alone): ~11 hr per cycle
- sensitivity to Baficillin1 independently (MDA-MB-436 cells; single agent, BRCA1 mutant line): significantly more sensitive
- combinatorial effects of BAFi/ATRi (MDA-MB-436 cells; with VE-821): strictly additive
- sensitivity (cell survival) compared to wild-type HCT116 ([1]; single agent, 5 continuous days): slightly less sensitive
- combination index (CI shARID1A) ([1]; with VE-821, 5 days): 1.48±0.14
